{"source": "ChEMBL document CHEMBL4616720", "about": "(J Med Chem, 2020)", "key": {"[1]": {"assay": "Toxicity in KM mouse assessed as clinical changes at <262 mg/kg, ip administered as single dose measured for 14 days", "type": "organism-based", "details": "in vivo, 336 h"}, "Histone deacetylase 1 [2]": {"biological_target": "T1, Histone deacetylase 1 (Homo sapiens, UniProt Q13547)", "T1 sequence (Q13547 whole entry)": "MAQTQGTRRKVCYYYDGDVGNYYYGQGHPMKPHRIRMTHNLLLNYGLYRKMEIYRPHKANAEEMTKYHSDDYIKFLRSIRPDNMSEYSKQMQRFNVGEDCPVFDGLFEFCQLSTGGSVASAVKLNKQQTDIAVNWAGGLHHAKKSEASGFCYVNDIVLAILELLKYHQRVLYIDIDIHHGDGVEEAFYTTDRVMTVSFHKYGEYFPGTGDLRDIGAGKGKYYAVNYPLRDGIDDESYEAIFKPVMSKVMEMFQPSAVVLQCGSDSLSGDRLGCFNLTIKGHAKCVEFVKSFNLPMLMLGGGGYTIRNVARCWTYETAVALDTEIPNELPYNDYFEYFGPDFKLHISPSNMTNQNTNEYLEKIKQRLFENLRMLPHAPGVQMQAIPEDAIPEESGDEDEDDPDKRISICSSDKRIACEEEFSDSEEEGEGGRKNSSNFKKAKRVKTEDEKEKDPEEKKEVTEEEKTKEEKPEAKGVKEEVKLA", "assay": "Inhibition of HDAC1 (unknown origin) at 10 uM using Boc-Lys(Ac)-pNA as substrate preincubated for 20 mins followed by substrate addition and further incubated for 90 mins by fluorescence assay relative to control"}, "[3]": {"assay": "Toxicity in KM mouse assessed as behavioral changes at <262 mg/kg, ip administered as single dose measured daily for 14 days", "type": "organism-based", "details": "in vivo, 336 h"}, "Histone deacetylase 1 [4]": {"biological_target": "T1, Histone deacetylase 1", "assay": "Inhibition of HDAC1 (unknown origin) using Boc-Lys(Ac)-pNA as substrate preincubated for 20 mins followed by substrate addition and further incubated for 90 mins by fluorescence assay"}, "[5]": {"assay": "Cmax in Sprague-Dawley rat at 20 mg/kg, po measured at 0.25 hrs by LC-MS/MS analysis", "type": "ADME, organism-based", "set-up": "dose 20 mg/kg, route oral", "details": "in vivo"}, "A549 [6]": {"tested_on": "A549", "assay": "Induction of apoptosis in human A549 cells assessed as late apoptotic cells at 40 uM measured after 24 hrs by Annexin V-FITC/propidium iodide staining based FACSClibur flow cytometry analysis (reference value: 2.32 %)", "type": "functional"}, "A549 [7]": {"tested_on": "A549", "assay": "Induction of apoptosis in human A549 cells assessed as live cells at 40 uM measured after 24 hrs by Annexin V-FITC/propidium iodide staining based FACSClibur flow cytometry analysis (reference value: 97 %)", "type": "functional"}, "[8]": {"assay": "Drug concentration in plasma of Sprague-Dawley rat at 2 mg/kg, iv measured after 5 mins by LC-MS/MS analysis", "type": "ADME, organism-based"}, "[9]": {"biological_target": "T2, Peptide deformylase, mitochondrial (Homo sapiens, UniProt Q9HBH1)", "T2 sequence (Q9HBH1 whole entry)": "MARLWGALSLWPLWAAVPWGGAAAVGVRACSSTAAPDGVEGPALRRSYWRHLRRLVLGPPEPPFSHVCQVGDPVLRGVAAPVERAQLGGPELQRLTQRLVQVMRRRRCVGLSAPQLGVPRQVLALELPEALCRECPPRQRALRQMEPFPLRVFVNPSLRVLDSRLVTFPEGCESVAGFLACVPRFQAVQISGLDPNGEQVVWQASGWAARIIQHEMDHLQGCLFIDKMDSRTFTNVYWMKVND", "assay": "Inhibition of human PDF expressed in Escherichia coli BL21 pLysS using formyl-Met-Ala-His-Ala peptide as substrate measured after 1 hr by fluorescamine-based fluorescence assay"}, "[10]": {"biological_target": "T3, Peptide deformylase, mitochondrial (Homo sapiens) (UniProt Q9HBH1)", "T3 sequence (whole entry)": "T2 sequence (Q9HBH1 whole entry)", "assay": "Inhibition of PDF in human A549 cells assessed as decrease in mtDNA encoded COX1 protein level measured after 48 hrs by Western blot analysis", "type": "cell-based"}, "MCF7": {"tested_on": "MCF7", "assay": "Antiproliferative activity against human MCF7 cells assessed as reduction in cell growth measured after 48 hrs by CCK8 assay", "type": "functional, cell-based", "details": "MCF7, 48 h"}, "[11]": {"assay": "Oral bioavailability in Sprague-Dawley rat at 20 mg/kg measured up to 24 hrs by LC-MS/MS analysis", "type": "ADME, organism-based", "details": "in vivo"}, "[12]": {"assay": "Toxicity in BALB/c nude mouse xenografted with human HCT116 cells assessed as body weight loss at 25 to 50 mg/kg, ip administered every 3 days for 21 days measured on day 7 relative to control", "type": "organism-based, HCT-116", "details": "in vivo"}, "[13]": {"assay": "Selectivity index, ratio of IC50 for human MCF10A cells assessed as reduction in cell growth measured after 48 hrs by CCK8 assay to IC50 for human SJSA1 cells assessed as reduction in cell growth measured after 48 hrs by CCK8", "type": "toxicity", "details": "MCF10A cells versus SJSA1 cells, read-out: Ratio IC50"}, "HL-60": {"tested_on": "HL-60", "assay": "Antiproliferative activity against human HL60 cells assessed as reduction in cell growth measured after 48 hrs by CCK8 assay", "type": "functional, cell-based", "details": "HL-60, 48 h"}, "A549 [14]": {"tested_on": "A549", "assay": "Induction of apoptosis in human A549 cells assessed as early apoptotic cells at 40 uM measured after 48 hrs by Annexin V-FITC/propidium iodide staining based FACSClibur flow cytometry analysis (reference value: 0.40 %)", "type": "functional"}, "A549 [15]": {"tested_on": "A549", "assay": "Induction of apoptosis in human A549 cells assessed as necrotic cells at 40 uM measured after 48 hrs by Annexin V-FITC/propidium iodide staining based FACSClibur flow cytometry analysis (reference value: 0.49 %)", "type": "functional"}, "[16]": {"assay": "Toxicity in KM mouse assessed as weight loss at 262.1 to 640 mg/kg, ip administered as single dose measured 3 times per week for 14 days", "type": "organism-based", "details": "in vivo, 336 h"}, "A549 [17]": {"tested_on": "A549", "assay": "Induction of apoptosis in human A549 cells assessed as live cells at 40 uM measured after 48 hrs by Annexin V-FITC/propidium iodide staining based FACSClibur flow cytometry analysis (reference value: 95.5 %)", "type": "functional"}, "[18]": {"assay": "Selectivity index, ratio of IC50 for human MCF10A cells assessed as reduction in cell growth measured after 48 hrs by CCK8 assay to IC50 for human HL60 cells assessed as reduction in cell growth measured after 48 hrs by CCK8", "type": "toxicity", "details": "MCF10A cells versus HL60 cells, read-out: Ratio IC50"}, "MCF-10A": {"tested_on": "MCF-10A", "assay": "Cytotoxicity against human MCF10A cells assessed as reduction in cell growth measured after 48 hrs by CCK8 assay", "type": "cell-based"}, "[19]": {"assay": "Selectivity index, ratio of IC50 for human MCF10A cells assessed as reduction in cell growth measured after 48 hrs by CCK8 assay to IC50 for human MCF7 cells assessed as reduction in cell growth measured after 48 hrs by CCK8", "type": "toxicity", "details": "MCF10A cells versus MCF7 cells, read-out: Ratio IC50"}}, "data": [{"smiles": "O=C(C[C@@H](CC1CCCC1)C(=O)N1CC2(CC2)C[C@H]1c1nc(-c2ccc(F)cc2C(F)(F)F)no1)NO", "values": [{"measurement": "Activity", "setting": "[1]", "value": "Non-Toxic"}, {"measurement": "inhibition", "setting": "Histone deacetylase 1 [2]", "value": -0.35, "unit": "%"}, {"measurement": "Activity", "setting": "[3]", "value": "Non-Toxic"}, {"measurement": "IC50", "setting": "Histone deacetylase 1 [4]", "value": "> 10", "unit": "µM"}, {"measurement": "Cmax", "setting": "[5]", "value": 617, "unit": "ng/mL"}, {"measurement": "Activity", "setting": "A549 [6]", "value": 7.07, "unit": "%"}, {"measurement": "Activity", "setting": "A549 [7]", "value": 87.8, "unit": "%"}, {"measurement": "concentration at 5 min", "setting": "[8]", "value": 136, "unit": "ng/mL"}, {"measurement": "IC50", "setting": "[9]", "value": 0.00411, "unit": "µM"}, {"measurement": "inhibition", "setting": "[10]", "value": "Dose-dependent effect"}, {"measurement": "IC50", "setting": "MCF7", "value": 4.65, "unit": "µM"}, {"measurement": "F", "setting": "[11]", "value": 23.5, "unit": "%"}, {"measurement": "Activity", "setting": "[12]", "value": 5, "unit": "%"}, {"measurement": "selectivity ratio at 48 h", "setting": "[13]", "value": 9}, {"measurement": "IC50", "setting": "HL-60", "value": 2.02, "unit": "µM"}, {"measurement": "Activity", "setting": "A549 [14]", "value": 12.6, "unit": "%"}, {"measurement": "Activity", "setting": "A549 [15]", "value": 1.01, "unit": "%"}, {"measurement": "Activity", "setting": "[16]", "value": "Toxic"}, {"measurement": "Activity", "setting": "A549 [17]", "value": 80.9, "unit": "%"}, {"measurement": "selectivity ratio at 48 h", "setting": "[18]", "value": 9}, {"measurement": "IC50", "setting": "MCF-10A", "value": 18.1, "unit": "µM"}, {"measurement": "selectivity ratio at 48 h", "setting": "[19]", "value": 9}]}]}
